Paper PMC8151276, “An Integrated Approach toward NanoBRET Tracers for Analysis of GPCR Ligand Engagement” (Molecules, 2021)

Assays:
ADCYAP1R1 = target: T1, ADCYAP1R1 (Homo sapiens, UniProt P41586); test: NanoBRET screen HiBiT-ADCYAP1R1 in HEK293; type: binding
T1 construct: purchased Promega (in-house HiBiT-GPCR construct library, NanoBRET)
T1 sequence (P41586 21-468): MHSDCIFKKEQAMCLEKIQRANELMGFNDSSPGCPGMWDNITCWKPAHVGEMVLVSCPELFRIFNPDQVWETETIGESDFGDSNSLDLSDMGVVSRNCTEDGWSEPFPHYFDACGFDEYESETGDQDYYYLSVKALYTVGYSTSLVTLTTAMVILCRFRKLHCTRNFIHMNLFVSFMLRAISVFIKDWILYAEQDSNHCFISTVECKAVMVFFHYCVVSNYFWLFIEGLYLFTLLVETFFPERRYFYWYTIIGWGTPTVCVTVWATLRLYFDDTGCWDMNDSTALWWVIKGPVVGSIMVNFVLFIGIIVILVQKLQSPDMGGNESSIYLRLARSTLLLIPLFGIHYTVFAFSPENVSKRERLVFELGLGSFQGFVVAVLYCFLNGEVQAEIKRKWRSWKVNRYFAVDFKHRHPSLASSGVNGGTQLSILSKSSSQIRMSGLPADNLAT
Description: (§1) Each tracer candidate was screened across the entire library of HiBiT-GPCR constructs using NanoBRET as the detection modality. As depicted in Figure 4A, the specificity of interactions was evaluated through decrease in BRET due to competitive displacement of a bound tracer by excess parental compound. Each tracer was analyzed for binding to each HiBiT-GPCR fusion in the absence and in the presence of competing parental compound. Briefly, HEK293 cells were transfected with HiBiT-GPCR constructs diluted into promoterless DNA to reduce expression and maximize translocation to the cell surface. Each tracer candidate was then screened at concentrations of 1 μM and 0.1 μM across cells expressing these fusions. Cells were treated for 1.5 h with tracer either alone or in the presence of 20 μM competing parental compound (i.e., control). BRET was measured upon addition of purified LgBiT and subsequent complementation with HiBiT genetically fused to a GPCR. The specificity of interactions was assessed through a decrease in BRET signal due to competitive displacement of the bound tracer. To further gauge the robustness of these interactions, the fold response over the control (i.e., BRETtracer/BRETcontrol) was calculated. We chose a 1.5-fold response, which translates to ≥7-fold signal over noise as the minimal threshold required to score an interaction as positive.
(§2) HiBiT-GPCR DNA constructs were diluted in 10 mM Tris pH 8 to a final concentration of 0.01 μg/μL, arrayed in 96-well plates and stored at −20 °C. For transfection, HEK293 cells were suspended in Opti-MEM (without phenol red) supplemented with 2% fetal bovine serum (Seradigm) and 100 units/mL penicillin–streptomycin (Gibco) at a final concentration of 220,000 cells/mL and dispensed into white 96-well plates at 90 μL/well. Subsequent transfections and screens were carried using an Agilent Bravo Automated Liquid Handling Platform. First, the 96-well HiBiT DNA arrays were diluted 25-fold in Opti-MEM (without serum or phenol red) to a final concentration of 0.0004 μg/μL and 20 μL of the diluted DNAs were transferred into new 96-well plates. Next, promoterless carrier DNA (1 μg/μL) was diluted 25-fold (0.04 μg/μL) and then dispensed into the diluted arrays at 20 μL/well. Following brief mixing, Viafect transfection reagent (Promega) diluted 16-fold into Opti-MEM was dispensed into the plates at 40 μL/well. After mixing by pipetting, plates were incubated for 10 min on the pipetting station deck. The DNA-transfection reagent complexes were then added to plates containing cells. To facilitate the screen, 10 μL of DNA-transfection reagent complexes were added in duplicates to the top 4 and bottom 4 rows, resulting in two identical 48-well arrays per plate. Plates with transfected cells were incubated for 18–20 h at 37 °C/5% CO2. A screen of each tracer across the entire library using two different concentrations requires duplicate plates of transfected cells. Depending on the number of tracers being screened, transfections can be scaled up using the same ratios. The next day, for each tracer, four 20× screening solutions in tracer dilution buffer (Promega) were prepared: two duplicates at final concentration of 20 μM and two duplicates at a final concentration of 2 μM. […] The four resulting solutions were diluted 4-fold in Opti-MEM without serum or phenol red to generate 5× solutions (5 µM and 0.5 µM tracer +/− 100 μM competing compound). To screen the library, a BioTek MultiFlo FX liquid dispenser was used to dispense 22.5 µL of tracer solution to the top 4 rows and 22.5 µL tracer + competing compound solution to the 4 bottom rows. Plates were briefly mixed on an orbital shaker and incubated for 1.5 h at room temperature. […] Plates were briefly mixed on an orbital shaker and incubated for 15 min to allow complementation.

NPFFR1 = target: T2, NPFFR1 (Homo sapiens, UniProt Q9GZQ6); test: NanoBRET screen HiBiT-NPFFR1 in HEK293; type: binding
T2 construct: purchased Promega (in-house HiBiT-GPCR construct library, NanoBRET)
T2 sequence (Q9GZQ6 whole entry): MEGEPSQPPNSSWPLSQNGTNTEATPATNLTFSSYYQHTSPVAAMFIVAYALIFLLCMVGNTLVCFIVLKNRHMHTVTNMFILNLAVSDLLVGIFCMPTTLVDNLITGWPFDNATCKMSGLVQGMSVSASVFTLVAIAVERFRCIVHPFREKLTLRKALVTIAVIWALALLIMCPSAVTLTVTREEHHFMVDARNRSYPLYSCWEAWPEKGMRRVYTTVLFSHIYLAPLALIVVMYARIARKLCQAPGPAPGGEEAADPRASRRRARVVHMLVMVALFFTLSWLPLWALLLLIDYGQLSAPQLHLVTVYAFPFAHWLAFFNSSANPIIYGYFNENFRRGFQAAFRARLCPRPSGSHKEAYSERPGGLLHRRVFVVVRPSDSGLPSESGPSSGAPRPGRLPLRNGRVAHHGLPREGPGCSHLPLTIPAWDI
Description: as §1, §2

Row | SMILES | NanoBRET Fold Response (ADCYAP1R1; ADCYAP1R1, tracer 0.1μM) | NanoBRET Fold Response (ADCYAP1R1; ADCYAP1R1, tracer 1μM) | NanoBRET Fold Response (NPFFR1; NPFFR1, tracer 0.1μM) | NanoBRET Fold Response (NPFFR1; NPFFR1, tracer 1μM) | also measured
1 | O=C(CCc1ccc2n1[B-](F)(F)[N+]1=C(c3ccc[nH]3)C=CC1=C2)NCc1ccc(C(=O)NCCOCCC(=O)N[C@@H]2CC[C@@]3(O)[C@H]4Cc5ccc(O)c6c5[C@@]3(CCN4CC3CC3)[C@H]2O6)cc1 [Naltrexone-3-NB590] | 0.88 | 0.98 | 0.94 | 1.15 | –
2 | CN1CCN(C2=Nc3cc(Cl)ccc3N(CC(=O)NCCOCCOCCOCCOCCNC(=O)CCc3ccc4n3[B-](F)(F)[N+]3=C(c5ccc[nH]5)C=CC3=C4)c3ccccc32)CC1 [Clozapine-c-2-NB590] | – | – | – | – | NanoBRET Fold Response (ADCYAP1R1; ADCYAP1R1, 0.1μM tracer): 0.97; NanoBRET Fold Response (ADCYAP1R1; ADCYAP1R1, 1μM tracer): 1.07; NanoBRET Fold Response (NPFFR1; NPFFR1, 0.1μM tracer): 1.02; NanoBRET Fold Response (NPFFR1; NPFFR1, 1μM tracer): 1.00
3 | O=C(CCOCCOCCOCCOCCNC(=O)CCc1ccc2n1[B-](F)(F)[N+]1=C(c3ccc[nH]3)C=CC1=C2)NCCCN1CCN(C2=Nc3cc(Cl)ccc3Nc3ccccc32)CC1 [Clozapine-a-2-NB590] | – | – | – | – | NanoBRET Fold Response (ADCYAP1R1; ADCYAP1R1, 0.1μM tracer): 1.00; NanoBRET Fold Response (ADCYAP1R1; ADCYAP1R1, 1μM tracer): 1.06; NanoBRET Fold Response (NPFFR1; NPFFR1, 1μM tracer): 0.98
4 | CCOC(=O)c1cc(C#N)c(N2CCC(C(=O)NS(=O)(=O)Cc3ccccc3/C=C/C(=O)NCCNC(=O)CCc3ccc4n3[B-](F)(F)[N+]3=C(c5ccc[nH]5)C=CC3=C4)CC2)nc1C [AZD1283-1-NB590] | – | – | – | – | NanoBRET Fold Response (ADCYAP1R1; ADCYAP1R1, 0.1μM): 0.93; NanoBRET Fold Response (ADCYAP1R1; ADCYAP1R1, 1μM): 0.96; NanoBRET Fold Response (NPFFR1; NPFFR1, 0.1μM): 1.02; NanoBRET Fold Response (NPFFR1; NPFFR1, 1μM): 0.99
5 | COc1ccc2[nH]c(-c3ccc(CNC(=O)CCOCCOCCOCCOCCNC(=O)CCc4ccc5n4[B-](F)(F)[N+]4=C(c6ccc[nH]6)C=CC4=C5)cc3)c(CCNC(C)=O)c2n1 [AzomelatoninICO9-2-NB590] | – | – | – | – | NanoBRET Fold Response (ADCYAP1R1; 0.1μM tracer): 1.08; NanoBRET Fold Response (ADCYAP1R1; 1μM tracer): 0.91; NanoBRET Fold Response (NPFFR1; 1μM tracer): 1.01
6 | CCCn1c(=O)c2[nH]c(-c3ccc(OCC(=O)NCCNC(=O)CCOCCNC(=O)c4ccc(CNC(=O)CCc5ccc6n5[B-](F)(F)[N+]5=C(c7ccc[nH]7)C=CC5=C6)cc4)cc3)nc2n(CCC)c1=O [XAC-3-NB590] | 0.98 | 0.97 | 0.99 | 1.01 | –
7 | COc1ccccc1N1CCN(CCCCN2C(=O)c3ccc(CNC(=O)CCOCCNC(=O)c4ccc(CNC(=O)CCc5ccc6n5[B-](F)(F)[N+]5=C(c7ccc[nH]7)C=CC5=C6)cc4)cc3C2=O)CC1 [NAN-190-3-NB590] | 1.25 | 1.00 | 1.06 | 0.96 | –
8 | O=C(CCc1ccc2n1[B-](F)(F)[N+]1=C(c3ccc[nH]3)C=CC1=C2)NCc1ccc(C(=O)NCCOCCOCCNCC(O)COc2cccc3ccccc23)cc1 (stereo not shown) [Propranolol-3-NB590] | – | – | – | – | NanoBRET Fold Response (ADCYAP1R1; ADCYAP1R1, 0.1μM): 1.00; NanoBRET Fold Response (ADCYAP1R1; ADCYAP1R1, 1μM): 0.97; NanoBRET Fold Response (NPFFR1; NPFFR1, 0.1μM): 1.01; NanoBRET Fold Response (NPFFR1; NPFFR1, 1μM): 0.99
9 | COc1ccc2c(n1)c(CCNC(C)=O)cn2CCNC(=O)CCc1ccc2n1[B-](F)(F)[N+]1=C(c3ccc[nH]3)C=CC1=C2 [Azamelatonin-1-NB590] | – | – | – | – | NanoBRET Fold Response (ADCYAP1R1; 0.1μM tracer): 0.76; NanoBRET Fold Response (ADCYAP1R1; 1μM tracer): 0.54; NanoBRET Fold Response (NPFFR1; 0.1μM tracer): 0.99; NanoBRET Fold Response (NPFFR1; 1μM tracer): 0.91
10 | O=C(CCOCCOCCOCCOCCNC(=O)CCc1ccc2n1[B-](F)(F)[N+]1=C(c3ccc[nH]3)C=CC1=C2)NCCCN1CCN(C2=Nc3ccccc3Oc3ccc(Cl)cc32)CC1 [Loxapine-a-2-NB590] | 1.03 | 1.20 | 0.98 | 1.00 | –
11 | COc1ccccc1N1CCN(CCCCN2C(=O)c3ccc(CNC(=O)CCOCCOCCOCCOCCNC(=O)CCc4ccc5n4[B-](F)(F)[N+]4=C(c6ccc[nH]6)C=CC4=C5)cc3C2=O)CC1 [NAN-190-2-NB590] | 1.08 | 1.04 | 0.95 | 1.02 | –
12 | CC(C)N(CC[C@H](c1ccccc1)c1cc(CCNC(=O)c2ccc(CNC(=O)CCc3ccc4n3[B-](F)(F)[N+]3=C(c5ccc[nH]5)C=CC3=C4)cc2)ccc1O)C(C)C [Tolterodine-BZ-NB590] | 1.04 | 1.00 | 0.96 | 1.02 | –
13 | O=C(CCc1ccc2n1[B-](F)(F)[N+]1=C(c3ccc[nH]3)C=CC1=C2)NCCOCCOCCNC(=O)OCCOCCN1CCN(C2=Nc3ccccc3Sc3ccccc32)CC1 [Quetiapine-a-2-NB590] | 1.03 | 1.11 | 0.99 | 1.00 | –
14 | CN1CCN(C2=Nc3cc(Cl)ccc3Nc3ccc(CNC(=O)CCOCCOCCOCCOCCNC(=O)CCc4ccc5n4[B-](F)(F)[N+]4=C(c6ccc[nH]6)C=CC4=C5)cc32)CC1 [Clozapine-b-2-NB590] | – | – | – | – | NanoBRET Fold Response (ADCYAP1R1; ADCYAP1R1, 0.1μM tracer): 1.04; NanoBRET Fold Response (ADCYAP1R1; ADCYAP1R1, 1μM tracer): 1.09; NanoBRET Fold Response (NPFFR1; NPFFR1, 0.1μM tracer): 1.00; NanoBRET Fold Response (NPFFR1; NPFFR1, 1μM tracer): 1.02
15 | CC(C)N(CC[C@H](c1ccccc1)c1cc(CCNC(=O)CCOCCOCCOCCOCCNC(=O)CCc2ccc3n2[B-](F)(F)[N+]2=C(c4ccc[nH]4)C=CC2=C3)ccc1O)C(C)C [Tolterodine-2-NB590] | 0.68 | 0.93 | 1.19 | – | –
16 | Cc1cc2c(s1)Nc1ccccc1N=C2N1CCN(CCCNC(=O)CCOCCOCCOCCOCCNC(=O)CCc2ccc3n2[B-](F)(F)[N+]2=C(c4ccc[nH]4)C=CC2=C3)CC1 [Olanzapine-a-2-NB590] | 1.02 | 1.01 | 0.96 | – | –
17 | N#CN=C(NCCCOc1cccc(CN2CCCCC2)c1)NCCNC(=O)CCOCCOCCOCCOCCNC(=O)CCc1ccc2n1[B-](F)(F)[N+]1=C(c3ccc[nH]3)C=CC1=C2 [Aminopotentidine-2-NB590] | 1.00 | 1.01 | 0.96 | 1.02 | –
